Converted amounts (≈) assume the structure as drawn.
What was measured:
[1] = target: Mitogen-activated protein kinase 14 (Homo sapiens, UniProt Q16539); assay: Inhibition of p38alpha (unknown origin) assessed as phosphorylation of ATF-2 by ELISA
Homo sapiens = organism: Homo sapiens; assay: Selectivity ratio of IC50 for JNK3 (unknown origin) to IC50 for p38alpha (unknown origin)
[2] = target: Mitogen-activated protein kinase 10 (Homo sapiens, UniProt P53779); assay: Inhibition of JNK3 (unknown origin) assessed as phosphorylation of ATF-2 by ELISA
U2OS = assay: Cytotoxicity against human U2OS cells assessed as morphology up to 50 uM by DAPI staining assay; format: cell-based
[3] = Metabolic stability in human liver microsomes assessed as compound remaining after 240 mins by LC-MS/MS analysis; format: ADME; details: read-out: Stability
[4] = Solubility in aqueous PBS-buffer at pH 7.4; format: physicochemical

Sequence of Mitogen-activated protein kinase 10 (P53779 whole entry): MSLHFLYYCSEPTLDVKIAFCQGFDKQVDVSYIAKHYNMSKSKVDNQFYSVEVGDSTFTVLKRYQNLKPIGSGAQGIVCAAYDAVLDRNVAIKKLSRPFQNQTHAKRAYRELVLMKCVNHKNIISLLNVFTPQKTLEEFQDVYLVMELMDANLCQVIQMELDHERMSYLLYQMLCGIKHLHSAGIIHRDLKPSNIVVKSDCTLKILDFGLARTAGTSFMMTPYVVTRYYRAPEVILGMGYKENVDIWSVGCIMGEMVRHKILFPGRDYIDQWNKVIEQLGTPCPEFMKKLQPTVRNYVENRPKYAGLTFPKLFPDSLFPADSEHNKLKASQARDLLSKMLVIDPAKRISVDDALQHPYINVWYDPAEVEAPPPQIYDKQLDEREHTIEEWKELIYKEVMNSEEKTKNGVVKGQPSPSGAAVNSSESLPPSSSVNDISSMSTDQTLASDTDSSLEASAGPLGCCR
Sequence of Mitogen-activated protein kinase 14 (Q16539 whole entry): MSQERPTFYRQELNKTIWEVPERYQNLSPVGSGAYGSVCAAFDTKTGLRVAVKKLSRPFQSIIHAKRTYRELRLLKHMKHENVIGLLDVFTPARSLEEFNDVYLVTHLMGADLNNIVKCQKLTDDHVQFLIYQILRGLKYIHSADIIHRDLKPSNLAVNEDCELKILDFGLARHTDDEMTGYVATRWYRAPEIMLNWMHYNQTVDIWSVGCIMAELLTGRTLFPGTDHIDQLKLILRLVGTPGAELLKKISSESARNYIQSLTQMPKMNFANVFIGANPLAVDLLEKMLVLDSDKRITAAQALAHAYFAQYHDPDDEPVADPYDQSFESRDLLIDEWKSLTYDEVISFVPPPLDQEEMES

| SMILES | IC50 [1] | Ratio IC50 (Homo sapiens) | IC50 [2] | Activity (U2OS) | remaining at 4 h [3] | solubility [4] |
| --- | --- | --- | --- | --- | --- | --- |
| CC(=O)Nc1cc(-c2c(-c3ccc(F)cc3)nc(SC3CCC(C(=O)O)CC3O)n2CC2CCCO2)ccn1 (racemic) | 612 nM | 4.3 | 2630 nM |  |  |  |
| CC(=O)Nc1cc(-c2c(-c3ccc(F)cc3)nc(S/C=C\C(=O)O)n2C2CCC2)ccn1 | 211 nM | 0.2 | 47 nM |  |  |  |
| CC(=O)Nc1cc(-c2c(-c3ccc(F)cc3)nc(S/C=C\C(=O)O)n2CC2CCCCC2)ccn1 | 39 nM | 0.6 | 25 nM |  |  |  |
| CC(=O)Nc1cc(-c2c(-c3ccc(F)cc3)nc(S/C=C\C(=O)O)n2CC2CC2)ccn1 | 30 nM | 0.6 | 18 nM | Non-toxic | 70% | 1200 µg/mL (≈ 2650 µM) |
| CC(=O)Nc1cc(-c2c(-c3ccc(F)cc3)nc(S/C=C\C(=O)O)n2CC(O)CO)ccn1 (stereo not given) | 723 nM | 0.3 | 226 nM |  |  |  |
| COC(Cn1c(S/C=C\C(=O)O)nc(-c2ccc(F)cc2)c1-c1ccnc(NC2CC2)c1)OC | 128 nM | 0.1 | 12 nM |  |  |  |
| CCOC(=O)/C=C/Sc1nc(-c2ccc(F)cc2)c(-c2ccnc(NC(C)=O)c2)n1C1CC1 | 451 nM | 1.5 | 678 nM |  |  |  |
| CC(=O)CSc1nc(-c2ccc(F)cc2)c(-c2ccnc(NC(C)=O)c2)n1C | 36 nM | 7.1 | 255 nM |  |  |  |
| O=C(O)/C=C\Sc1nc(-c2ccc(F)cc2)c(-c2ccnc(Nc3ccccc3)c2)[nH]1 | 36 nM | 0.5 | 17 nM | Non-toxic |  |  |
| COC(Cn1c(S/C=C\C(=O)O)nc(-c2ccc(F)cc2)c1-c1ccnc(NC(C)=O)c1)OC | 335 nM | 0.1 | 33 nM |  |  |  |
| CCNC(=O)N1CCC(Nc2cc(-c3c(-c4ccc(F)cc4)nc(S/C=C\C(=O)O)n3C)ccn2)CC1 | 146 nM | 0.4 | 61 nM |  |  |  |
| CC(=O)Nc1cc(-c2c(-c3ccc(F)cc3)nc(SCC(=O)N(C)C)n2C)ccn1 | 140 nM | 8.5 | 1190 nM |  |  |  |
| CCOC(=O)/C=C/Sc1nc(-c2ccc(F)cc2)c(-c2ccnc(NC(C)=O)c2)n1CC(OC)OC | 2180 nM | 1 | 2170 nM |  |  |  |
| CC(=O)Nc1cc(-c2c(-c3ccc(F)cc3)nc(SCCC(=O)O)n2C)ccn1 | 246 nM | 0.4 | 91 nM |  |  |  |
| COC(=O)CSc1nc(-c2ccc(F)cc2)c(-c2ccnc(NC(C)=O)c2)n1C | 297 nM | 0.7 | 199 nM |  |  |  |
| CC(=O)Nc1cc(-c2c(-c3ccc(F)cc3)nc(S/C=C\C(=O)O)n2C)ccn1 | 191 nM | 0.3 | 55 nM |  |  |  |
| CC(=O)Nc1cc(-c2c(-c3ccc(F)cc3)nc(S/C=C\C(=O)O)n2C2CCCC2)ccn1 | 164 nM | 0.3 | 45 nM |  |  |  |
| CCOC(=O)/C=C\Sc1nc(-c2ccc(F)cc2)c(-c2ccnc(Nc3ccccc3)c2)[nH]1 | 146 nM | 0.5 | 80 nM |  |  |  |
| CC(=O)Nc1cc(-c2c(-c3ccc(F)cc3)nc(S/C=C/C(=O)O)n2CC2CC2)ccn1 | 208 nM | 0.8 | 170 nM |  |  |  |
| CCC(C)Nc1cc(-c2c(-c3ccc(F)cc3)nc(S/C=C\C(=O)O)n2CC(OC)OC)ccn1 (stereo not given) | 34 nM | 0.8 | 26 nM | Non-toxic | 56% | 930 µg/mL (≈ 1860 µM) |
| CC(=O)Nc1cc(-c2c(-c3ccc(F)cc3)nc(SCC(=O)O)n2C)ccn1 | 1670 nM | 0.2 | 266 nM |  |  |  |
| CC(=O)Nc1cc(-c2c(-c3ccc(F)cc3)nc(SC3CCC(C(=O)O)CC3O)n2C)ccn1 (stereo not given) | 764 nM | 0.2 | 180 nM |  |  |  |
| COC(Cn1c(SCC#N)nc(-c2ccc(F)cc2)c1-c1ccnc(NC2CC2)c1)OC | 153 nM | 0.5 | 79 nM | Non-toxic |  |  |
| O=C(O)/C=C\Sc1nc(-c2ccc(F)cc2)c(-c2ccnc(Nc3ccccc3)c2)n1CC1CC1 | 354 nM | 0.2 | 54 nM |  |  |  |
| COC(Cn1c(SCC#N)nc(-c2ccc(F)cc2)c1-c1ccnc(F)c1)OC | 642 nM | 6.6 | 4220 nM |  |  |  |
| O=C(O)/C=C/Sc1nc(-c2ccc(F)cc2)c(-c2ccnc(Nc3ccccc3)c2)n1CC1CC1 | 181 nM | 1.2 | 213 nM |  |  |  |
| CC(=O)Nc1cc(-c2c(-c3ccc(F)cc3)nc(SC3CCC(C(=O)O)CC3O)n2C2CCCCC2)ccn1 (stereo not given) | 416 nM | 0.2 | 79 nM |  |  |  |
| COC(Cn1c(SCCC(=O)O)nc(-c2ccc(F)cc2)c1-c1ccnc(NC(C)=O)c1)OC | 1700 nM | 0.2 | 269 nM |  |  |  |
| CCOC(=O)/C=C/Sc1nc(-c2ccc(F)cc2)c(-c2ccnc(NC(C)=O)c2)n1CC1CC1 | 655 nM | 1.8 | 1220 nM |  |  |  |
